Data taken from US7786258B2, “Methods for inhibiting immune complex formation in a subject” (Trinity Therapeutics, Inc., priority 2004, dated 2010).
Positions of bridges follow the written chain, without caps; N, C: chain ends. No end group written: not given here.

Tests used:
histone = assay: Inhibition of histone binding: PAP immune complexes on histone-coated plates (Example 3)
Experimental: Inhibition of histone binding: The binding of immune complexes to the kidneys in lupus nephritis appears to involve (a) the binding of histones to the GBM, and then (b) the binding of immune complexes (through the IgG Fc CH2-CH3 cleft) to the bound histones. Experiments similar to those described above were used to inhibit binding of purified histone to IgG Fc binding. Histone (Sigma) was diluted 1:10 in coating buffer (Alpha Diagnostic International) and incubated on Falcon microtiter plates for 24 hours. Plates were blocked with 5× BSA blocking solution (Alpha Diagnostic International) for 24 hours. Freshly prepared 1:10 rabbit PAP (Sigma) was pre-incubated with either peptides or histone for one hour, and 100 μl of the mixture was added to the histone-coated plates for one hour. Plates were incubated with ABTS substrate (Quidel Corp.) for 45 minutes, and OD 405 was read.

MBP = system: MBP
Experimental: Inhibition of MBP binding: MBP (Sigma) was diluted 1:10 with coating buffer (Alpha Diagnostic International) and incubated for 24 hours on Falcon microtiter plates. Plates were washed and then blocked with 5× BSA blocking buffer (Alpha Diagnostic International) for 24 hours. Rabbit 1:10 PAP immune complexes were pre-incubated with equal amounts of peptide or MBP for 30 minutes. One hundred μl of PAP immune complexes/peptide or PAP/MBP was then added to the MBP-coated plates and incubated for one hour. The plates were washed and incubated with TMB substrate (Alpha Diagnostic International) for 30 minutes. After adding stop solution (Alpha Diagnostic International), the plates were read at 450 nm.
Further experiments were conducted to determine the effect of SEQ ID NO:47 (also referred to as NB-406) on binding of MBP to IgG PAP immune complexes.

RF = assay: Inhibition of RF binding to immune complexes using additional peptides (Example 5); conditions: for OD 405 nm: PAP pre-incubated with peptide one hour, RF coated plates, positive control 1.176
Experimental: The ability of additional peptides to inhibit the binding of RF to immune complexes was tested. Immune complexes (PAP) were formed by mixing 2 μl of rabbit anti-peroxidase with 50 μl of peroxidase in 1 ml distilled water. PAP (100 μl) were pre-incubated with 100 μl of peptide for one hour. Plates coated with RF were blocked with 5× BSA for 24 hours. The PAP/peptide mixtures (100 μl) were incubated with the RF coated plates for 30 minutes. RF (100 μl of a 200 I.U. standard supplied by Research Diagnostics) was used as a negative control. After washing and incubation with ABTS substrate (Quidel Corp., San Diego, Calif.) for 15 minutes, plates were read at 405 nm.

C1q = assay: Inhibition of C1q binding to immune complexes using additional peptides (Example 6); design: species or system human; conditions: for OD 405 nm: PAP pre-incubated with peptide or human C1q one hour, C1q coated plates, positive control 2.355
Experimental: The C1q/PAP and peptide/PAP mixtures (100 μl) were incubated with C1q coated plates for 30 minutes. After washing, plates were incubated with ATBS (Quidel Corp.) for 15 minutes and read at 405 nm.

human monomeric IgG = assay: Inhibition of RF binding to monomeric IgG by additional peptides (Example 7); conditions: peptides pre-incubated 1 hour with monomeric IgG, then 200 I.U. RF; positive control 1.312
Experimental: The ability of additional peptides to inhibit RF binding to monomeric IgG was tested. A standard rheumatoid factor commercial test was used (Research Diagnostics, New Jersey) with the following modifications: 100 μl of test peptides were pre-incubated for 1 hour with human monomeric IgG (Research Diagnostics, New Jersey). Plates were then washed and incubated with 200 I.U. of the RF positive control supplied with the test kit. The rest of the test was performed according to the manufacturer's instructions.

FcγIIa = assay: Inhibition of FcR binding to PAP by additional peptides, FcγIIa coated plates (Example 8); conditions: for OD 405 nm: OD read at 405 nm, positive control 1.599
Experimental: (§1) Falcon microtiter plates were coated with 1:10 dilutions of highly purified FcγIIa, FcγIIb and FcγIII, sealed, and incubated for […] at 4° C. […] PAP immune complexes were formed as described in Example 5. PAP (100 μl) were pre-incubated with 100 μl of peptide for one hour. PAP/peptide mixtures were added to the FcR coated plates and incubated for one hour. After washing, plates were incubated with ABTS substrate for 15 minutes and read at 405 nm.

FcγIIb = assay: Inhibition of FcR binding to PAP by additional peptides, FcγIIb coated plates (Example 8); conditions: OD read at 405 nm; positive control 1.394
Experimental: as §1

FcγIII = assay: Inhibition of FcR binding to PAP by additional peptides, FcγIII coated plates (Example 8); conditions: OD read at 405 nm; positive control 1.588
Experimental: as §1

| Sequence | OD 405 nm (histone; Table 5 experiment, IgG PAP immune complexes, positive control 2.110) | inhibition of histone binding to immune complexes, in words (histone; text on Tables 4 and 5) | OD 405 nm (MBP; Table 7 experiment, IgG PAP immune complexes, positive control 2.343) | inhibition of MBP binding to immune complexes, in words (MBP; text on Tables 6 and 7) | OD 405 nm (RF) | inhibition of RF binding to immune complexes, in words (RF; Table 10) | OD 405 nm (C1q) | inhibition of C1q binding, in words (C1q; Table 11) | OD 405 nm (human monomeric IgG) | OD 405 nm (FcγIIa) | inhibition of FcR binding to PAP, in words (FcγIIa; Table 13, statement for FcγIIa, FcγIIb and FcγIII together) | OD 405 nm (FcγIIb) | OD at 405 nm (FcγIII) |
| --- | --- | --- | --- | --- | --- | --- | --- | --- | --- | --- | --- | --- | --- |
| APPDCAWHLGELVWCT (Synthetically generated polypeptide) | 0.227 | significantly inhibit | 0.500 | able to inhibit | 0.205 | best inhibition | 0.389 | greatest inhibition | 1.065 | 0.509 | greatest inhibition | 0.496 | 0.670 |
| DCAFHLGELVWCT (disulfide 2-12 (inferred)) | – | – | – | – | 0.267 | – | 0.859 | – | 0.962 | 0.660 | – | 0.510 | 0.810 |
| APPCAFHLGELVWCT (disulfide 4-14 (inferred)) | – | – | – | – | 0.226 | – | 0.983 | – | 1.159 | 0.605 | – | 0.380 | 0.880 |
| APPCAWHLGELVWCT (disulfide 4-14 (inferred)) | – | – | – | – | 0.250 | – | 1.148 | – | 1.166 | 0.658 | – | 0.562 | 0.530 |
